Data published in patent US5444087A, “Manumycin compounds” (Bristol-Myers Squibb Company, priority 1993, dated 1995).
≈ marks a conversion by molar mass, not a printed value.

How the values were obtained:
[1] = system: Salmonella typhimurium A27908; assay: MIC by broth dilution assay, S. typhimurium A27908; type: cell-based; conditions: Salmonella enterica, serial broth dilution, nutrient broth
[2] = system: Enterobacter cloacae A9656; assay: MIC by broth dilution assay, E. cloacae A9656; type: cell-based; conditions: serial broth dilution, nutrient broth
Escherichia coli SGB888 = assay: MIC by broth dilution assay, E. coli SGB888; type: cell-based; conditions: serial broth dilution, nutrient broth
[3] = system: Staphylococcus aureus A9606; assay: MIC by broth dilution assay, S. aureus A9606; type: cell-based; conditions: serial broth dilution, nutrient broth
Solubility = type: physicochemical
Proteus mirabilis A9900 = assay: MIC by broth dilution assay, P. mirabilis A9900; type: cell-based; conditions: serial broth dilution, nutrient broth
[4] = target: farnesylation of Ras protein p21 (protein-cysteine farnesyltransferase); assay: Inhibition of farnesylation of Ras protein p21 (assay of Manne et al.); type: biochemical; conditions: assay described by Manne et al. (1990); read-out: IC50 value in inhibiting the farnesylation of Ras protein p21
[5] = system: Staphylococcus aureus A9537; assay: MIC by broth dilution assay, S. aureus A9537; type: cell-based; conditions: serial broth dilution, nutrient broth
Micrococcus luteus A9852 = assay: MIC by broth dilution assay, M. luteus A9852; type: cell-based; conditions: serial broth dilution, nutrient broth
M. luteus A21349 = assay: MIC by broth dilution assay, M. luteus A21349; type: cell-based; conditions: Micrococcus luteus, serial broth dilution, nutrient broth
[6] = system: Pseudomonas aeruginosa A9843; assay: MIC by broth dilution assay, P. aeruginosa A9843; type: cell-based; conditions: serial broth dilution, nutrient broth
[7] = system: Staphylococcus epidermidis A24548; assay: MIC by broth dilution assay, S. epidermidis A24548; type: cell-based; conditions: serial broth dilution, nutrient broth
Bacillus subtilis A9506 = assay: MIC by broth dilution assay, B. subtilis A9506; type: cell-based; conditions: serial broth dilution, nutrient broth
[8] = system: Klebsiella pnneumoniae A9664; assay: MIC by broth dilution assay, K. pneumoniae A9664; type: cell-based; conditions: serial broth dilution, nutrient broth

For `O=C(/C=C/C=C/C=C/C1CCCCC1)NC1=CC(O)(/C=C/C=C/C=C/C(=O)NC2=C(O)CCC2=O)C2OC2C1=O` (stereo not drawn) [Manumycin D, 2,4,6-heptatrienenamide, 7-cyclohexyl-N-[5-hydroxy-5-[7-[2-hydroxy-5-oxo-1-cyclopenten-1-yl-amino]-7-oxo-1,3,5-heptatrienyl]-2-oxo-7-oxabicyclo[4.1.0]hept-3-en-yl]-, (all-E)-], the MIC [1] was 0.5 µg/mL (≈ 0.915 µM), the MIC [2] was 128 µg/mL (≈ 234 µM) and the MIC (Escherichia coli SGB888) was 0.1 µg/mL (≈ 0.183 µM). For the same molecule, the MIC [3] was 2 µg/mL (≈ 3.66 µM), the solubility in acetone (Solubility) was “soluble” and the solubility in acetonitrile (Solubility) was “soluble”. The “solubility in dimethyl sulfoxide” value (Solubility) was “soluble”, the solubility in hexane (Solubility) was “insoluble” and the solubility in water (Solubility) was “insoluble”. It also gave an MIC (Proteus mirabilis A9900) of 128 µg/mL (≈ 234 µM), an IC50 [4] of 92.5 µM and an MIC [5] of 1 µg/mL (≈ 1.83 µM). It also gave an MIC (Micrococcus luteus A9852) of 2 µg/mL (≈ 3.66 µM), an MIC (M. luteus A21349) of 1 µg/mL (≈ 1.83 µM) and an MIC [6] of 128 µg/mL (≈ 234 µM). For the same molecule, the MIC [7] was 1 µg/mL (≈ 1.83 µM), the MIC (Bacillus subtilis A9506) was 0.5 µg/mL (≈ 0.915 µM) and the MIC [8] was 128 µg/mL (≈ 234 µM).

With `CC(C)/C=C/C=C/C=C/C(=O)NC1=CC(O)(/C=C/C=C/C=C/C(=O)NC2=C(O)CCC2=O)C2OC2C1=O` (stereo not drawn) [Manumycin E, 2,4,6-heptatrienenamide, 7-isopropyl-N-[5-hydroxy-5-[7-[2-hydroxy-5-oxo-1-cyclopenten-1-yl-amino]-7-oxo-1,3,5-heptatrienyl]-2-oxo-7-oxabicyclo[4.1.0]hept-3-en-yl]-, (all-E)-] the MIC [1] was 32 µg/mL (≈ 63.2 µM), the MIC [2] was 128 µg/mL (≈ 253 µM) and the MIC (Escherichia coli SGB888) was 2.5 µg/mL (≈ 4.94 µM). For the same molecule, the MIC [3] was 8 µg/mL (≈ 15.8 µM), the solubility in acetone (Solubility) was “soluble” and the solubility in acetonitrile (Solubility) was “soluble”. For the same molecule, the “solubility in dimethyl sulfoxide” value (Solubility) was “soluble”, the solubility in hexane (Solubility) was “insoluble” and the solubility in water (Solubility) was “insoluble”. For the same molecule, the MIC (Proteus mirabilis A9900) was 128 µg/mL (≈ 253 µM), the IC50 [4] was 120 µM and the MIC [5] was 8 µg/mL (≈ 15.8 µM). It also gave an MIC (Micrococcus luteus A9852) of 16 µg/mL (≈ 31.6 µM), an MIC (M. luteus A21349) of 16 µg/mL (≈ 31.6 µM) and an MIC [6] of 128 µg/mL (≈ 253 µM). The MIC [7] was 8 µg/mL (≈ 15.8 µM), the MIC (Bacillus subtilis A9506) was 8 µg/mL (≈ 15.8 µM) and the MIC [8] was 128 µg/mL (≈ 253 µM).

Work on `CC(C)CC/C=C/C=C/C=C/C(=O)NC1=CC(O)(/C=C/C=C/C=C/C(=O)NC2=C(O)CCC2=O)C2OC2C1=O` (stereo not drawn) [Manumycin C, 2,4,6-heptatrienenamide, 7-isopentyl-N-[5-hydroxy-5-[7-[2-hydroxy-5-oxo-1-cyclopenten-1-yl-amino]-7-oxo-1,3,5-heptatrienyl]-2-oxo-7-oxabicyclo[4.1.0]hept-3-en-yl]-, (all-E)-] yielded an MIC [1] of 2 µg/mL (≈ 3.74 µM), an MIC [2] of 128 µg/mL (≈ 239 µM) and an MIC (Escherichia coli SGB888) of 0.32 µg/mL (≈ 0.599 µM). For the same molecule, the MIC [3] was 4 µg/mL (≈ 7.48 µM), the solubility in acetone (Solubility) was “soluble” and the solubility in acetonitrile (Solubility) was “soluble”. The “solubility in dimethyl sulfoxide” value (Solubility) was “soluble”, the solubility in hexane (Solubility) was “insoluble” and the solubility in water (Solubility) was “insoluble”. It also gave an MIC (Proteus mirabilis A9900) of 128 µg/mL (≈ 239 µM), an IC50 [4] of 100 µM and an MIC [5] of 2 µg/mL (≈ 3.74 µM). It also gave an MIC (Micrococcus luteus A9852) of 8 µg/mL (≈ 15 µM), an MIC (M. luteus A21349) of 4 µg/mL (≈ 7.48 µM) and an MIC [6] of 64 µg/mL (≈ 120 µM). It also gave an MIC [7] of 2 µg/mL (≈ 3.74 µM), an MIC (Bacillus subtilis A9506) of 1 µg/mL (≈ 1.87 µM) and an MIC [8] of 128 µg/mL (≈ 239 µM).
